Source: patent US20210189342A1, “COMPOSITIONS AND METHODS FOR MODULATING MONOCYTE AND MACROPHAGE INFLAMMATORY PHENOTYPES AND IMMUNOTHERAPY USES THEREOF” (Verseau Therapeutics, Inc., priority 2018, published 2021)

System: CD53
Assay: siRNA dose response, CD53 mRNA knockdown, bDNA Assay
Assay type: cell-based, human
Conditions: THP-1, 24 hr
Procedure: (§1) Dose response curves for siRNAs were generated in vitro using a variety of cell lines according to Table 4.
(§2) Briefly, cells were seeded in 96-well plates and reverse transfected with siRNA, Lipofectamine® 2000 (0.5 uL/well; ThermoFisher), and, in some cases, a reporter plasmid (50 ng/well). The reporter plasmid (psiCHECK™-2, Promega) encoded both firefly luciferase and the gene of interest fused to renilla luciferase; silencing of the gene of interest results in proportional silencing of renilla luciferase but leaves firefly luciferase unaffected as an internal control.
(§3) After 24 hr incubation at 37° C., mRNA knockdown was measured using an endpoint assay. For targets without a reporter plasmid, a branched DNA (bDNA) assay was performed according to the manufacturer's instructions (QuantiGene® Singleplex Gene Expression Assay, ThermoFisher) to measure both the target gene and GAPDH (housekeeping gene) mRNA. Data are plotted as siRNA concentration (nM) vs. remaining mRNA (ratio of target gene to GAPDH, normalized to mock siRNA-transfected cells). For targets with a reporter plasmid, a Dual-Glo® Luciferase Assay was performed according to the manufacturer's instructions (Promega) to measure firefly and renilla luciferase expression. Data are plotted as siRNA concentration (nM) vs. remaining mRNA (ratio of renilla to firefly luminescence, normalized to mock siRNA-transfected cells).
(§4) For all dose response curves, a 4-parameter logistic model was applied to determine the IC50 of each siRNA sequence (Table 5 and FIG. 2). Data shown in Table 5 and FIG. 2 represent the mean of quadruplicates, +/−standard deviation.

Point of comparison: “XD-09207: siRNA targeting CD53 (sense 5'-agGGcAAGAucucauuucAdTsdT-3'; antisense 5'-UGAAAUGAGAUCUUGCCCUdTsdT-3'; as printed in the source, key not given here)”, IC50 0.038 nM. Against it:
- XD-09209: siRNA targeting CD53 (sense 5'-auuGAuGuGuucuaAGucudTsdT-3'; antisense 5'-AGACUuAGAAcAcAUcAAUdTsdT-3'; as printed in the source, key not given here) — within 1.5-fold, 0.041 nM
- XD-09203: siRNA targeting CD53 (sense 5'-gcAuGGGcucuAucAAGGAdTsdT-3'; antisense 5'-UCCUUGAuAGAGCCcAUGCdTsdT-3'; as printed in the source, key not given here) — 4.7-fold higher, 0.178 nM
- XD-09208: siRNA targeting CD53 (sense 5'-uuuAuuAGAGGGccuuAuudTsdT-3'; antisense 5'-AAuAAGGCCCUCuAAuAAAdTsdT-3'; as printed in the source, key not given here) — 4.3-fold higher, 0.162 nM

System: LRRC25
Assay: siRNA dose response, LRRC25 mRNA knockdown, Dual-Glo Luciferase Assay
Assay type: cell-based, human
Conditions: Hepa1-6 + reporter plasmid, 24 hr
Procedure: as §1, §2, §3, §4

Point of comparison: “XD-09251: siRNA targeting LRRC25 (sense 5'-gccGucGcuuuuccAGcAudTsdT-3'; antisense 5'-AUGCUGGAAAAGCGACGGCdTsdT-3'; RNA with 2'-O-methyl and phosphorothioate modifications, case key not given here, as printed in the source, key not given here)”, IC50 2.77 nM. Against it:
- XD-09250: siRNA targeting LRRC25 (sense 5'-gccAGAGGAAcGccAGcGAdTsdT-3'; antisense 5'-UCGCUGGCGUUCCUCUGGCdTsdT-3'; as printed in the source, key not given here) — 5.4-fold higher, 15 nM
- XD-09259: siRNA targeting LRRC25 (sense 5'-cuucGAGGcuGAugAGGcudTsdT-3'; antisense 5'-AGCCUcAUcAGCCUCGAAGdTsdT-3'; RNA with 2'-O-methyl and phosphorothioate modifications, case key not given here, as printed in the source, key not given here) — 9.5-fold lower, 0.293 nM
- XD-09256: siRNA targeting LRRC25 (sense 5'-ccGAcuAuGAGAAcAuGuudTsdT-3'; antisense 5'-AAcAUGUUCUcAuAGUCGGdTsdT-3'; as printed in the source, key not given here) — 4.6-fold lower, 0.601 nM
- XD-09258: siRNA targeting LRRC25 (sense 5'-caAuAAAuGcuucgAGGcudTsdT-3'; antisense 5'-AGCCUCGAAGcAUUuAUUGdTsdT-3'; RNA with 2'-O-methyl and phosphorothioate modifications, case key not given here, as printed in the source, key not given here) — 84-fold lower, 0.033 nM

System: DOCK2
Assay: siRNA dose response, DOCK2 mRNA knockdown, bDNA Assay
Assay type: cell-based, human
Conditions: THP-1, 24 hr
Procedure: as §1, §2, §3, §4

Point of comparison: “XD-09697: siRNA targeting DOCK2 (sense 5'-accGGAAAuuucAgcAuuudTsdT-3'; antisense 5'-AAAUGCUGAAAUUUCCGGUdTsdT-3'; RNA with 2'-O-methyl and phosphorothioate modifications, case key not given here, as printed in the source, key not given here)”, IC50 0.556 nM. Against it:
- XD-09691: siRNA targeting DOCK2 (sense 5'-ggGGAuAccucAuaAAGcAdTsdT-3'; antisense 5'-UGCUUuAUGAGGuAUCCCCdTsdT-3'; RNA with 2'-O-methyl and phosphorothioate modifications, case key not given here, as printed in the source, key not given here) — 21-fold higher, 11.7 nM
- XD-09698: siRNA targeting DOCK2 (sense 5'-ggucGAGGAcAuuauuuucdTsdT-3'; antisense 5'-GAAAAuAAUGUCCUCGACCdTsdT-3'; as printed in the source, key not given here) — 2.4-fold higher, 1.36 nM
